For one assay, the system named is Enterococcus faecium. Put plainly: Tested for in vitro antibacterial activity against Enterococcus faecium 02D31P2 vancomycin teicoplanin erythromycin resistance phenotype. It is filed as functional.
The subject of another assay is Streptococcus pyogenes. Kind of assay: Tested for in vitro antibacterial activity against Streptococcus pyogenes O2A1UC1 phenotype. It is filed as functional.
Assay [1] concerns Staphylococcus aureus. Put plainly: Tested for in vitro antibacterial activity against Staphylococcus aureus 011 HT1 novobiocin resistance phenotype. It is filed as functional.
For assay [2], the system named is Staphylococcus epidermidis. Kind of assay: Tested for in vitro antibacterial activity against Staphylococcus epidermidis 012GO42 oxacillin resistance phenotype. The assay is classed as functional.
Assay [3] has as its system Staphylococcus aureus. Put plainly: Tested for in vitro antibacterial activity against Staphylococcus aureus 011 HT3 phenotype. It is filed as functional.
The test system of assay [4] is Staphylococcus aureus. Kind of assay: IC50 was determined for gyrase B of Staphylococcus aureus against novobiocin (0.5 mg/mL) as reference; IC50nov/IC50comp.
For assay [5], the system named is Staphylococcus aureus. Put plainly: Tested for in vitro antibacterial activity against Staphylococcus aureus 011 GO64 ofloxacin oxacillin erythromycin resistance phenotype. The assay is classed as functional.

These results are taken from ChEMBL document CHEMBL1133253, “Improved antibacterial activities of coumarin antibiotics bearing 5',5'-dialkylnoviose: biological activity of RU79115” (Bioorg Med Chem Lett, 2000).

Structures are written as SMILES. In brackets after ≈: the same amount, converted by molar mass.

The MIC is the least concentration at which growth counts as inhibited. For the molecule `CO[C@@H]1[C@@H](OC(N)=O)[C@@H](O)[C@H](Oc2ccc3c(O)c(NC(=O)c4ccc(O)c(CC=C(C)C)c4)c(=O)oc3c2C)OC1(C)C` [NOVOBIOCIN], the MIC was 0.6 µg/mL (≈ 0.979 µM) against Enterococcus faecium; 0.3 µg/mL (≈ 0.49 µM) against Streptococcus pyogenes; 10 µg/mL (≈ 16.3 µM) in the assay with Staphylococcus aureus [1]; less than 0.04 µg/mL in assay [2]; less than 0.04 µg/mL in the assay on Staphylococcus aureus [3]. For the same molecule, the Ratio in the assay with Staphylococcus aureus [4] was found to be 1.

As for `C#CCONC(=O)O[C@H]1[C@@H](O)[C@H](Oc2ccc3c(=O)c(/C(C)=N/OC)c(O)oc3c2C)OC(C)(C)[C@@H]1OC`, the minimal inhibitory concentration (MIC) with Enterococcus faecium was found to be 2.5 µg/mL (≈ 4.68 µM); against Streptococcus pyogenes, 0.6 µg/mL (≈ 1.12 µM); against Staphylococcus aureus [1], 5 µg/mL (≈ 9.35 µM); in assay [2] it was 0.08 µg/mL (≈ 0.15 µM); in the assay on Staphylococcus aureus [3], 0.16 µg/mL (≈ 0.299 µM); against Staphylococcus aureus [5], 0.16 µg/mL (≈ 0.299 µM). For the same molecule, the Ratio in the assay on Staphylococcus aureus [4] is 12.5.

On to `C#CCONC(=O)O[C@H]1[C@@H](O)[C@H](Oc2ccc3c(O)c(/C(C)=N/OC)c(=O)oc3c2C)O[C@@](C)(CC)[C@@H]1OC`, for which the MIC against Enterococcus faecium is 0.15 µg/mL (≈ 0.273 µM); with Streptococcus pyogenes it was 0.08 µg/mL (≈ 0.146 µM); with Staphylococcus aureus [1] it was 0.3 µg/mL (≈ 0.547 µM); in assay [2] it was less than 0.04 µg/mL; against Staphylococcus aureus [3], less than 0.04 µg/mL. Besides, the Ratio with Staphylococcus aureus [4] turned out to be 11.1.
